Measured values: publication PMC6217055 (Theranostics, 2018)

Experiments:
[1] = test system: 4T1-Fluc tumour; test: 4T1-Fluc BALB/c homograft mouse model; type: in vivo; details: daily oral; vorinostat, abemaciclib 60 mg/kg
[2] = test system: MDA-MB-468, MDA-MB-231, SK-OV-3 and OVCAR-5 cells; test: cell cycle assay; type: cell-based, human; details: 48 h, quarter, half of IC50 and IC50
[3] = test system: six solid tumour cell lines; test: CCK-8 cytotoxicity, summary over six cell lines; type: cell-based; details: read-out: IC50 values in these cell lines

CCN1CCN(Cc2ccc(Nc3ncc(F)c(-c4cc(F)c5nc(C)n(C(C)C)c5c4)n3)nc2)CC1 [Abemaciclib]
tumour volume [1]: decreased only slightly
cell cycle distribution (G1-phase arrest) [2]: did not induce G1 to S phase arrest
IC50 [3]: > 1000 nM

O=C(CCCCCCC(=O)Nc1ccccc1)NO [Vorinostat]
tumour volume [1]: barely impacted
cell cycle distribution (G1-phase arrest) [2]: did not induce G1 to S phase arrest
